What all share (test): DTP human tumour cell line panel, 48 h
Test [1] concerns SK-OV-3 ovarian.
Test [2] has as its system EKVX NSCLC.
Test [3] has as its system M14 melanoma.
In test [4] the test system is CAKI-1 renal.
Test [5] deals with A549 NSCLC.
Test [6] relates to SF-268 CNS.
For test [7], the system named is OVCAR-8 ovarian.
Test [8] relates to SN12C renal.
Test [9] relates to CCRF-CEM leukemia.
The subject of test [10] is NCI-H460 lung.

Several values for one entry are separate records, joined by “and”; a condition that tells them apart may be missing. Equal values may be shown once.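 All cell lines were grown in 96-well plates and treated with compound for 48 hours. GI50: concentration for 50% inhibition of growth. The concentration for full growth arrest is given as TGI.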 Bounds are passed on as bounds.

As usually defined, the GI50 is the concentration that inhibits growth by half. One may read the TGI as the concentration giving total growth inhibition. A lower TGI goes with greater sensitivity of the cells.

In the case of `CCCCCCCCCCCCOC1C(C(COC2OC(C(O)CN3CCCCC3)C3OC(C)(C)OC23)NC(=O)Nc2ccccc2)OC2OC(C)(C)OC21` (stereo unspecified), the GI50 in test [1] is 20.4 µM; in [2], 14.4 µM; in test [3], 7.75 µM; in [4] it was 17.7 µM; in test [5] it was 11.4 µM; in test [6] it was 10.3 µM. For the same molecule, the GI50 was 15.5 µM in [7], 16 µM in test [8], 0.863 µM in test [9] and 4.52 µM in test [10]. Also, the concentration for total growth inhibition (TGI) in [1] is 44.1 µM; in test [2] it was 30.2 µM; in [3], 19.4 µM; in test [4] it was 35.7 µM; in [5] it was 38 µM; in test [6], 25.4 µM. For the same molecule, the TGI in test [7] amounted to 39.7 µM; in test [8], 33.2 µM; in [9] it was 2.23 µM; in [10], 16.9 µM.
Take `CC1CCC2C(C)C3C(CC4C5CC=C6CC(OC7OC(CO)C(O)C(OC8OC(CO)C(O)C(O)C8O)C7OC7OC(C)C(O)C(O)C7O)CCC6(C)C5CCC43C)N2C1` (stereo unspecified): the GI50 in [1], in test [2], in test [3], in [4], in test [5] and in [6] was over 2.5 µg/mL each time. For the same molecule, the GI50 in test [7], in test [8], in test [9] and in [10] was over 2.5 µg/mL throughout. Besides, the TGI in test [1] was 29.6 µM and > 2.5 µg/mL; in test [2], 21.9 µM and > 2.5 µg/mL; in test [3], 9.84 µM and > 2.5 µg/mL; in [4], 25.1 µM and > 2.5 µg/mL; in [5], 16.7 µM and > 2.5 µg/mL; in test [6], 34.1 µM and > 2.5 µg/mL. For the same molecule, the TGI in [7] was 29.8 µM and > 2.5 µg/mL; in test [8] it was 24.3 µM and > 2.5 µg/mL; in test [9], 28.2 µM and > 2.5 µg/mL; in [10], 37.6 µM and > 2.5 µg/mL.
For the molecule `CC12CCc3ccccc3C1=Nc1ccccc12` (stereo unspecified), the TGI was over 100 µM in [1]; over 100 µM in test [2]; over 100 µM in test [3]; 51.6 µM in [4]; over 100 µM in [5]; over 100 µM in [6]. Besides, the TGI was over 100 µM in test [7], 43.7 µM in [8], 47.3 µM in test [9] and over 100 µM in test [10].
Consider `COc1ccc2c(c1OC)-c1c(c3ccc([N+](=O)[O-])cc3c(=O)n1CCCN=[N+]=[N-])C2=O`, for which the GI50 in [1] was 19.4 µM; in test [2] it was over 100 µM; in [3] it was 3.46 µM; in test [4], 2.55 µM; in test [5], 4.18 µM; in [6] it was 30.3 µM. In addition, the GI50 in [7] is 21 µM; in [8], 11.5 µM; in test [9], 2.04 µM; in [10] it was 9.97 µM. Also, the TGI in test [1] is over 100 µM; in test [2], over 100 µM; in test [3] it was 10.6 µM; in [4] it was 9.73 µM; in test [5] it was over 100 µM; in test [6] it was over 100 µM. Further, the TGI in [7] was over 100 µM; in [8] it was over 100 µM; in test [9], 17.1 µM; in test [10], over 100 µM.
Turning to `COc1ccc2[nH]c(-c3cccc(N(C)C)c3)cc(=O)c2c1`, the GI50 in test [1] is 0.573 µM; in test [2], 1.17 µM; in [3] it was 0.325 µM and 0.552 µM; in test [4] it was 0.418 µM; in test [5], 4.46 µM; in test [6], 0.657 µM. Also, the figures for the GI50 in test [7], in test [8] and in [10] were 0.433 µM, 0.654 µM and 0.564 µM, respectively. In addition, the TGI in test [1] was 59.2 µM; in test [2], 30.7 µM; in test [3] it was over 100 µM; in test [4], over 100 µM; in [5], over 100 µM; in [6], 33.7 µM. Besides, the TGI in test [7] is 2.48 µM and 5.56 µM; in [8] it was over 100 µM; in test [9] it was 0.907 µM; in test [10], over 100 µM.
Take `CCCCSCc1nc2nc(Cl)c(Cl)nc2[nH]1`: the TGI in [1] was 57.2 µM; in [2], over 100 µM; in [3], 66.6 µM; in test [4], 79.3 µM; in test [5] it was over 100 µM; in test [6], over 100 µM. Further, the TGI in test [7] was over 100 µM; in [8], 53.2 µM; in test [9] it was 63.6 µM; in [10], 53.8 µM.
Regarding `CCCCCC(=O)OCC(=O)O[C@@H]1C[C@]2(C(C)C)O[C@@]1(C)[C@@H]1CC[C@@H](C)[C@H]1[C@@H]2OC(=O)/C=C/c1ccccc1`, the GI50 is over 85.2 µM in [1]; over 54.5 µM in test [2]; over 53.4 µM in [3]; 0.0329 µM in test [4]; over 60.3 µM in test [5]; 4.08 µM in test [6]. Further, the 50% growth inhibitory concentration (GI50) in test [7] was 0.0907 µM; in test [8], 2.9 µM; in test [9], over 37.6 µM; in test [10] it was over 60.6 µM. The TGI in test [1] is over 100 µM; in [2], over 100 µM; in [3], over 100 µM; in [4], 0.221 µM; in test [5] it was over 100 µM; in test [6] it was over 84.7 µM. In addition, the TGI in [7] was over 79.2 µM; in test [8], over 78.7 µM; in [9] it was over 100 µM; in test [10], over 94.8 µM.
As to `CN(C)CCOc1nc2c3cccnc3cc(-c3cccc(Cl)c3)c2c2ncccc12`, the GI50 in [1] is 5.05 µM; in test [2] it was 1.7 µM; in test [3], 1.76 µM; in test [4] it was 1.1 µM; in [5], 1.39 µM; in test [6] it was 1.17 µM. The GI50 in test [8] is 1.51 µM; in [9], 1.26 µM; in test [10] it was 0.836 µM. Moreover, the TGI in [1] came to 18.4 µM; in [2] it was 4.62 µM; in test [3], 3.48 µM; in test [4], 2.92 µM; in test [5], 2.98 µM; in test [6], 4.37 µM. Also, the TGI in test [8] turned out to be 7.03 µM; in test [9], 6.73 µM; in test [10], 2.24 µM.
Take `O=C(N=Nc1c(O)[nH]c2c(Cl)cc(Cl)cc12)c1ccncc1`: the TGI in test [1] is 69.8 µM; in [2], over 100 µM; in test [3] it was over 100 µM; in test [4] it was 39 µM; in [5], over 100 µM; in [7], 67.8 µM. Moreover, the concentration for total growth inhibition (TGI) is 64.4 µM in test [8], over 100 µM in test [9] and over 100 µM in test [10].

For the origin of these results see PubChem BioAssay (NCI).
